Values of other authors, collected in paper PMC3356383, “Efficacious Intermittent Dosing of a Novel JAK2 Inhibitor in Mouse Models of Polycythemia Vera” (PLoS ONE, 2012).

Test system: murine model of PV
Design: method as in PMID 18394554
Conditions: 42 days of continuous treatment; cited from earlier work

**Q.** Which Hematocrit reduction does the source give for `Cc1cnc(Nc2ccc(OCCN3CCCC3)cc2)nc1Nc1cccc(S(=O)(=O)NC(C)(C)C)c1` [TG101348] here?
**A.** 18%
